According to patent publication US10562909B2, “Fused quadracyclic compounds, compositions and uses thereof” (Tabomedex Biosciences, LLC, priority 2016, dated 2020):

Each molecule was assayed against MAPKAPK2 (Homo sapiens, UniProt P49137) (assay: MK2 Enzymatic Assay). Settings: 0.5 nM MAPKAPK2, 3 μM ATP, 2 μM Ser/Thr4 peptide, 23° C., values given as concentration bins.
Format: biochemical
Procedure, shortened: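 Percent phosphorylation was derived from coumarin and fluorescein emissions relative to 0% and 100% phospho-peptide controls, read after a 120 min development step. Reactions used 2× stocks of 1 nM kinase, 4 μM peptide and 6 μM ATP; enzyme and peptide sat 20 min before a 120 min ATP reaction.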

Sequence of MAPKAPK2 (P49137 whole entry, species assumed): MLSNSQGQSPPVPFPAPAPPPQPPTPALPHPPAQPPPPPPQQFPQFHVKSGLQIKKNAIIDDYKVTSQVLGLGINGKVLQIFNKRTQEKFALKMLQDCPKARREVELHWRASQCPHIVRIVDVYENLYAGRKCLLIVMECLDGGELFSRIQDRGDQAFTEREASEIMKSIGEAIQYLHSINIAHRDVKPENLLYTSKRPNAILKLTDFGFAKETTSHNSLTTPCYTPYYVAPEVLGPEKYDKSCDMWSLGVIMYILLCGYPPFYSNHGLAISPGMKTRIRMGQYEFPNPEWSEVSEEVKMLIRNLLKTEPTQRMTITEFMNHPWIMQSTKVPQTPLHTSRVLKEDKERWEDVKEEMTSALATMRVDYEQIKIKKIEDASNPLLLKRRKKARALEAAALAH

Row | SMILES | IC50
1 | O=C(O)CN1CC2(CCN(c3ccc4c(c3)Cn3cc(-c5ccc(F)cc5)cc3-c3nccn3-4)C2)C1 [Compound 478, 2-(6-(12-(4-fluorophenyl)-9H-benzo[e]imidazo[2,1-c]pyrrolo[1,2-a][1,4]diazepin-7-yl)-2,6-diazaspiro[3.4]octan-2-yl)acetic acid] | 100 to 200 nM
2 | CC(C)(NCC1CCN(c2ccc3c(c2)Cn2cc(-c4ccc(F)cc4)cc2-c2nccn2-3)C1)C(=O)O (stereo not shown) [Compound 479, 2-(((1-(12-(4-fluorophenyl)-9H-benzo[e]imidazo[2,1-c]pyrrolo[1,2-a][1,4]diazepin-7-yl)pyrrolidin-3-yl)methyl)amino)-2-methylpropanoic acid] | 100 to 200 nM
3 | O=C(O)C1CCN(CC2CCN(c3ccc4c(c3)Cn3cc(-c5ccc(F)cc5)cc3-c3nccn3-4)C2)CC1 (stereo not shown) [Compound 480, 1-((1-(12-(4-fluorophenyl)-9H-benzo[e]imidazo[2,1-c]pyrrolo[1,2-a][1,4]diazepin-7-yl)pyrrolidin-3-yl)methyl)piperidine-4-carboxylic acid] | 50 to 100 nM
4 | O=C1N[C@@H]2CN(c3ccc4c(c3)Cn3cc(-c5ccc(F)cc5)cc3-c3nccn3-4)C[C@@H]2O1 [Compound 481, (3aR,6aS)-5-(12-(4-fluorophenyl)-9H-benzo[e]imidazo[2,1-c]pyrrolo[1,2-a][1,4]diazepin-7-yl)hexahydro-2H-pyrrolo[3,4-d]oxazol-2-one] | 200 to 1000 nM
5 | OC[C@H]1CN(c2ccc3c(c2)Cn2cc(-c4ccc(F)cc4)cc2-c2nccn2-3)C[C@@H]1O [Compound 484, (3R,4R)-1-(12-(4-fluorophenyl)-9H-benzo[e]imidazo[2,1-c]pyrrolo[1,2-a][1,4]diazepin-7-yl)-4-(hydroxymethyl)pyrrolidin-3-ol] | 50 to 100 nM
6 | OC[C@@H]1CN(c2ccc3c(c2)Cn2cc(-c4ccc(F)cc4)cc2-c2nccn2-3)C[C@H]1O [Compound 485, (3S,4S)-1-(12-(4-fluorophenyl)-9H-benzo[e]imidazo[2,1-c]pyrrolo[1,2-a][1,4]diazepin-7-yl)-4-(hydroxymethyl)pyrrolidin-3-ol] | 100 to 200 nM
7 | NC[C@H]1CCN(c2ccc3c(c2)Cn2cc(-c4ccc(F)cc4)cc2-c2ncnn2-3)C1 [Compound 496, (R)-(1-(12-(4-fluorophenyl)-9H-benzo[e]pyrrolo[1,2-a][1,2,4]triazolo[5,1-c][1,4]diazepin-7-yl)pyrrolidin-3-yl)methanamine] | 50 to 100 nM
8 | CN(C)C[C@@H]1CN(c2ccc3c(c2)Cn2cc(-c4ccc(F)cc4)cc2-c2ncnn2-3)C[C@@H]1F [Compound 500, 1-((3R,4R)-4-fluoro-1-(12-(4-fluorophenyl)-9H-benzo[e]pyrrolo[1,2-a][1,2,4]triazolo[5,1-c] [1,4]diazepin-7-yl)pyrrolidin-3-yl)-N,N-dimethylmethanamine] | 100 to 200 nM
9 | Cc1cc(N2C[C@@H](CN(C)C)[C@H](O)C2)cc2c1-n1ccnc1-c1cc(-c3ccc(F)cc3)cn1C2 [Compound 512, (3S,4R)-4-((dimethylamino)methyl)-1-(12-(4-fluorophenyl)-5-methyl-9H-benzo[e]imidazo[2,1-c]pyrrolo[1,2-a][1,4]diazepin-7-yl)pyrrolidin-3-ol] | 500 to 1000 nM
10 | Cc1cc(N2C[C@@H](CN(C)C)[C@H](O)C2)cc2c1-n1ncnc1-c1cc(-c3ccc(F)cc3)cn1C2 [Compound 513, (3S,4R)-4-((dimethylamino)methyl)-1-(12-(4-fluorophenyl)-5-methyl-9H-benzo[e]pyrrolo[1,2-a][1,2,4]triazolo[5,1-c][1,4]diazepin-7-yl)pyrrolidin-3-ol] | 100 to 200 nM

Other lines, results leading:

Row | IC50 | SMILES
11 | < 50 nM | CNC[C@H]1CN(c2ccc3c(c2)Cn2cc(-c4ccc(F)cc4)cc2-c2nccn2-3)C[C@H]1O [Compound 482, (3S,4S)-1-(12-(4-fluorophenyl)-9H-benzo[e]imidazo[2,1-c]pyrrolo[1,2-a][1,4]diazepin-7-yl)-4-((methylamino)methyl)pyrrolidin-3-ol]
12 | < 50 nM | CNC[C@@H]1CN(c2ccc3c(c2)Cn2cc(-c4ccc(F)cc4)cc2-c2nccn2-3)C[C@@H]1O [Compound 483, (3R,4R)-1-(12-(4-fluorophenyl)-9H-benzo[e]imidazo[2,1-c]pyrrolo[1,2-a][1,4]diazepin-7-yl)-4-((methylamino)methyl)pyrrolidin-3-ol]
13 | < 50 nM | NCCC1CCN(c2ccc3c(c2)Cn2cc(-c4ccc(F)cc4)cc2-c2nccn2-3)C1 (stereo not shown) [Compound 486, 2-(1-(12-(4-fluorophenyl)-9H-benzo[e]imidazo[2,1-c]pyrrolo[1,2-a][1,4]diazepin-7-yl)pyrrolidin-3-yl)ethanamine]
14 | < 50 nM | CNCCC1CCN(c2ccc3c(c2)Cn2cc(-c4ccc(F)cc4)cc2-c2nccn2-3)C1 (stereo not shown) [Compound 487, 2-(1-(12-(4-fluorophenyl)-9H-benzo[e]imidazo[2,1-c]pyrrolo[1,2-a][1,4]diazepin-7-yl)pyrrolidin-3-yl)-N-methylethanamine]
15 | < 50 nM | CN(C)CCC1CCN(c2ccc3c(c2)Cn2cc(-c4ccc(F)cc4)cc2-c2nccn2-3)C1 (stereo not shown) [Compound 488, 2-(1-(12-(4-fluorophenyl)-9H-benzo[e]imidazo[2,1-c]pyrrolo[1,2-a][1,4]diazepin-7-yl)pyrrolidin-3-yl)-N,N-dimethylethanamine]
16 | < 50 nM | CNC[C@H]1CN(c2ccc3c(c2)Cn2cc(-c4ccc(F)cc4)cc2-c2ncnn2-3)C[C@H]1F [Compound 497, 1-((3S,4S)-4-fluoro-1-(12-(4-fluorophenyl)-9H-benzo[e]pyrrolo[1,2-a][1,2,4]triazolo[5,1-c] [1,4]diazepin-7-yl)pyrrolidin-3-yl)-N-methylmethanamine]
17 | < 50 nM | CN(C)C[C@H]1CN(c2ccc3c(c2)Cn2cc(-c4ccc(F)cc4)cc2-c2ncnn2-3)C[C@H]1F [Compound 498, 1-((3S,4S)-4-fluoro-1-(12-(4-fluorophenyl)-9H-benzo[e]pyrrolo[1,2-a][1,2,4]triazolo[5,1-c][1,4]diazepin-7-yl)pyrrolidin-3-yl)-N,N-dimethylmethanamine]
18 | < 50 nM | CNC[C@@H]1CN(c2ccc3c(c2)Cn2cc(-c4ccc(F)cc4)cc2-c2ncnn2-3)C[C@@H]1F [Compound 499, 1-((3R,4R)-4-fluoro-1-(12-(4-fluorophenyl)-9H-benzo[e]pyrrolo[1,2-a][1,2,4]triazolo[5,1-c] [1,4]diazepin-7-yl)pyrrolidin-3-yl)-N-methylmethanamine]
19 | < 50 nM | CC1c2cc(N3C[C@@H](CN(C)C)[C@H](O)C3)ccc2-n2ccnc2-c2cc(-c3ccc(F)cc3)cn21 (stereo partly drawn) [Compound 507, (3S,4R)-4-((dimethylamino)methyl)-1-(12-(4-fluorophenyl)-9-methyl-9H-benzo[e]imidazo[2,1-c]pyrrolo[1,2-a][1,4]diazepin-7-yl)pyrrolidin-3-ol]
20 | < 50 nM | C[C@@H]1c2cc(N3C[C@@H](CN(C)C)[C@H](O)C3)ccc2-n2ccnc2-c2cc(-c3ccc(F)cc3)cn21 [Compound 508, (3S,4R)-4-((dimethylamino)methyl)-1-((R)-12-(4-fluorophenyl)-9-methyl-9H-benzo[e]imidazo[2,1-c]pyrrolo[1,2-a][1,4]diazepin-7-yl)pyrrolidin-3-ol]
21 | < 50 nM | C[C@H]1c2cc(N3C[C@@H](CN(C)C)[C@H](O)C3)ccc2-n2ccnc2-c2cc(-c3ccc(F)cc3)cn21 [Compound 509, (3S,4R)-4-((dimethylamino)methyl)-1-((S)-12-(4-fluorophenyl)-9-methyl-9H-benzo[e]imidazo[2,1-c]pyrrolo[1,2-a][1,4]diazepin-7-yl)pyrrolidin-3-ol]
22 | < 50 nM | CN(C)C[C@@H]1CN(c2ccc3c(c2)Cn2cc(-c4ccc(F)cc4)cc2-c2cnnn2-3)C[C@H]1O [Compound 511, (3S,4R)-4-((dimethylamino)methyl)-1-(5-(4-fluorophenyl)-8H-benzo[e]pyrrolo[1,2-a][1,2,3]triazolo[5,1-c][1,4]diazepin-10-yl)pyrrolidin-3-ol]
